# Results reported in patent US9828339B2, “Biphenyl derivatives and methods for preparing same” (DONG-A ST CO., LTD, priority 2013, dated 2017).
# Molecular target: human muscarinic M3 receptor (Homo sapiens (Human), UniProt P20309)
# Experiment: Binding assay on human muscarinic M3 receptor ([3H]-methyl scopolamine displacement)
# Details: membranes overexpressing human M3 receptor, Ki from IC50 by Cheng-Prusoff, read-out: Binding Affinity to M3 Receptor, Ki
# Description: [Experimental Example 1] Binding Assay on Human Muscarinic M3 Receptor
# Cell membrane proteins (Perkin Elmer) wherein human muscarinic M3 receptor was overexpressed, [^3H]-methyl scopolamine and test compounds in various concentration were cultured in 0.2 ml of Tris-HCl buffer at 25° C. for 120 minutes. The same was filtered under suction through glass fiber filter (Whatman GF/B), and then the filter was washed 5 times with 1 ml of Tris-HCl buffer. The radioactivity of [^3H]-methyl scopolamine adsorbed on the filter was measured by a liquid scintillation counter. Non-specific binding was evaluated under existence of 5 μM of atropine. Affinity of the compound of the present invention to muscarinic M3 receptor was calculated as the dissociation constant (Ki), which can be calculated from concentration (IC50) of test compounds inhibiting 50% of binding of [^3H]-methyl scopolamine (i.e. labeled ligand) according to Cheng and Prusoff [Cheng and Prusoff, Biochem. Pharmacol., 22, 3099, 1973].
# Sequence of human muscarinic M3 receptor (P20309 whole entry): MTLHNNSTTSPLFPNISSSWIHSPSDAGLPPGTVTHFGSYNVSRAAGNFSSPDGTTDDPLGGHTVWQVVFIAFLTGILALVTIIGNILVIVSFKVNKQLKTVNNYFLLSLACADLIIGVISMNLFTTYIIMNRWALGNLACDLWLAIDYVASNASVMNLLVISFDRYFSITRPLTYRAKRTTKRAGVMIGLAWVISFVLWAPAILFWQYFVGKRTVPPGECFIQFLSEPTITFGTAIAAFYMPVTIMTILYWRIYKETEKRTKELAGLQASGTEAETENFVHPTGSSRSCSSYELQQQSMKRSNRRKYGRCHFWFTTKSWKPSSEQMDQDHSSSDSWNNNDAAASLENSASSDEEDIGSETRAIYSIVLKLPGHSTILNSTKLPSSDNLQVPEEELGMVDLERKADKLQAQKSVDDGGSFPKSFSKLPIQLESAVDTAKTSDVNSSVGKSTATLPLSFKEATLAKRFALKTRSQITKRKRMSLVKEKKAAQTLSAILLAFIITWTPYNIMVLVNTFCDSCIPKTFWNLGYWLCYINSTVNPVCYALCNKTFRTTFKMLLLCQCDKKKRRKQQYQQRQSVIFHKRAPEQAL
row,SMILES,Ki
1,"COc1ccc(-c2ccccc2NC(=O)OCCC2CCCN2C)cc1 (centres unmarked) [Example 5, 2-(1-methylpyrrolidin-2-yl)ethyl(4′-methoxy-[1,1′-biphenyl]-2-yl)carbamate]",1100 nM
2,"CN1CCCC1CCOC(=O)Nc1ccccc1-c1ccc(OC(F)(F)F)cc1 (centres unmarked) [Example 10, 2-(1-methylpyrrolidin-2-yl)ethyl(4′-trifluoromethoxy-[1,1′-biphenyl]-2-yl)carbamate]",401 nM
3,"CN1CCCC1CCOC(=O)Nc1ccccc1-c1ccc([N+](=O)[O-])cc1 (centres unmarked) [Example 11, 2-(1-methylpyrrolidin-2-yl)ethyl(4′-nitro-[1,1′-biphenyl]-2-yl)carbamate]",467 nM
4,"CCOc1cccc(-c2ccccc2NC(=O)OCCC2CCCN2C)c1 (centres unmarked) [Example 16, 2-(1-methylpyrrolidin-2-yl)ethyl(3′-ethoxy-[1,1′-biphenyl]-2-yl)carbamate]",1060 nM
5,"CN1CCCC1CCOC(=O)Nc1ccccc1-c1ccc(C#N)cc1 (centres unmarked) [Example 28, 2-(1-methylpyrrolidin-2-yl)ethyl(4′-cyano-[1,1′-biphenyl]-2-yl)carbamate]",845 nM
6,"CN1CCCC1CCOC(=O)Nc1ccccc1-c1cccc(CCCO)c1 (centres unmarked) [Example 29, 2-(1-methylpyrrolidin-2-yl)ethyl(3′-(3-hydroxypropyl)-[1,1′-biphenyl]-2-yl)carbamate]",931 nM
7,"CN(C)c1ccc(-c2ccccc2NC(=O)OCCC2CCCN2C)cc1 (centres unmarked) [Example 30, 2-(1-methylpyrrolidin-2-yl)ethyl(4′-(dimethylamino)-[1,1′-biphenyl]-2-yl)carbamate]",830 nM
8,"CN1CCCC1CCOC(=O)Nc1ccccc1-c1ccc(C(C)(C)C)cc1 (centres unmarked) [Example 31, 2-(1-methylpyrrolidin-2-yl)ethyl(4′-(tert-butyl)-[1,1′-biphenyl]-2-yl)carbamate]",311 nM
9,"CN1CCCC1CCOC(=O)Nc1ccccc1-c1ccccc1N (centres unmarked) [Example 32, 2-(1-methylpyrrolidin-2-yl)ethyl(2′-amino-[1,1′-biphenyl]-2-yl)carbamate]",> 1000 nM
10,"CN1CCCC1CCOC(=O)Nc1ccccc1-c1ccccc1Cl (centres unmarked) [Example 35, 2-(1-methylpyrrolidin-2-yl)ethyl(2′-chloro-[1,1′-biphenyl]-2-yl)carbamate]",435 nM
11,"CN1CCCC1CCOC(=O)Nc1ccccc1-c1ccccc1O (centres unmarked) [Example 36, 2-(1-methylpyrrolidin-2-yl)ethyl(2′-hydroxy-[1,1′-biphenyl]-2-yl)carbamate]",> 1000 nM
12,"Cc1cc(-c2ccccc2NC(=O)OCCC2CCCN2C)cc(C(C)(C)C)c1 (centres unmarked) [Example 37, 2-(1-methylpyrrolidin-2-yl)ethyl(3′-tert-butyl-5′-methyl-[1,1′-biphenyl]-2-yl)carbamate]",> 1000 nM
13,"CN1CCCC1CCOC(=O)Nc1ccccc1-c1ccc(F)c(C(F)(F)F)c1 (centres unmarked) [Example 38, 2-(1-methylpyrrolidin-2-yl)ethyl(4′-fluoro-3′-(trifluoromethyl)-[1,1′-biphenyl]-2-yl)carbamate]",574 nM
14,"CN1CCCC1CCOC(=O)Nc1ccccc1-c1cccc(O)c1 (centres unmarked) [Example 40, 2-(1-methylpyrrolidin-2-yl)ethyl(3′-hydroxy-[1,1′-biphenyl]-2-yl)carbamate]",119 nM
15,"CN1CCCC1CCOC(=O)Nc1ccc(C(F)(F)F)cc1-c1ccccc1 (centres unmarked) [Example 47, 2-(1-Methylpyrrolidin-2-yl)ethyl(5-(trifluoromethyl)-[1,1′-biphenyl]-2-yl)carbamate]",136 nM
16,"CN1CCCC1CCOC(=O)Nc1ccc(C(F)(F)F)cc1-c1ccc(F)cc1 (centres unmarked) [Example 48, 2-(1-Methylpyrrolidin-2-yl)ethyl(4′-fluoro-5-(trifluoromethyl)-[1,1′-biphenyl]-2-yl)carbamate]",258 nM

# Further lines, results first:
row,Ki,SMILES
1,99.7 nM,"O=C(Nc1ccccc1-c1ccc(F)cc1)OCC1CCCN1 (stereo in doubt) [Example 88, (S)-pyrrolidin-2-ylmethyl (4′-fluoro-[1,1′-biphenyl]-2-yl)carbamate]"
2,31.8 nM,"CN1CCCC1CCOC(=O)Nc1ccccc1-c1ccc(Cl)cc1 (centres unmarked) [Example 7, 2-(1-methylpyrrolidin-2-yl)ethyl(4′-chloro-[1,1′-biphenyl]-2-yl)carbamate]"
3,88 nM,"CN1CCCC1CCOC(=O)Nc1ccccc1-c1cccc(C(F)(F)F)c1 (centres unmarked) [Example 12, 2-(1-methylpyrrolidin-2-yl)ethyl(3′-trifluoromethyl-[1,1′-biphenyl]-2-yl)carbamate]"
4,80.1 nM,"CN1CCCC1CCOC(=O)Nc1ccccc1-c1ccc(C(F)(F)F)cc1 (centres unmarked) [Example 13, 2-(1-methylpyrrolidin-2-yl)ethyl(4′-trifluoromethyl-[1,1′-biphenyl]-2-yl)carbamate]"
5,12.4 nM,"Cc1ccc(-c2ccccc2NC(=O)OCCC2CCCN2C)cc1F (centres unmarked) [Example 14, 2-(1-methylpyrrolidin-2-yl)ethyl((3′-fluoro-4′-methyl)-[1,1′-biphenyl]-2-yl)carbamate]"
6,6.98 nM,"CN1CCCC1CCOC(=O)Nc1ccc(F)cc1-c1cccc(F)c1 (centres unmarked) [Example 18, 2-(1-methylpyrrolidin-2-yl)ethyl(3′,5-difluoro-[1,1′-biphenyl]-2-yl)carbamate]"
7,20.7 nM,"CN1CCCC1CCOC(=O)Nc1ccc(F)cc1-c1cc(F)cc(F)c1 (centres unmarked) [Example 20, 2-(1-methylpyrrolidin-2-yl)ethyl(3′,5,5′-trifluoro-[1,1′-biphenyl]-2-yl)carbamate]"
8,6.4 nM,"CN1CCCC1CCOC(=O)Nc1cc(F)ccc1-c1ccccc1 (centres unmarked) [Example 23, 2-(1-methylpyrrolidin-2-yl)ethyl(4-fluoro-[1,1′-biphenyl]-2-yl)carbamate]"
9,31 nM,"CN1CCCC1CCOC(=O)Nc1cc(F)ccc1-c1cccc(F)c1 (centres unmarked) [Example 24, 2-(1-methylpyrrolidin-2-yl)ethyl(3′,4-difluoro-[1,1′-biphenyl]-2-yl)carbamate]"
10,115 nM,"COc1ccc(-c2ccccc2)c(NC(=O)OCCC2CCCN2C)c1 (centres unmarked) [Example 25, 2-(1-methylpyrrolidin-2-yl)ethyl(4-methoxy-[1,1′-biphenyl]-2-yl)carbamate]"
11,56.7 nM,"Cc1ccc(NC(=O)OCCC2CCCN2C)c(-c2cccc(F)c2)c1 (centres unmarked) [Example 27, 2-(1-methylpyrrolidin-2-yl)ethyl(3′-fluoro-5-methyl-[1,1′-biphenyl]-2-yl)carbamate]"
12,16.8 nM,"CN1CCCC1CCOC(=O)Nc1ccccc1-c1cccc(N)c1 (centres unmarked) [Example 33, 2-(1-methylpyrrolidin-2-yl)ethyl(3′-amino-[1,1′-biphenyl]-2-yl)carbamate]"
13,28 nM,"CN1CCCC1CCOC(=O)Nc1ccccc1-c1ccc(N)c(Cl)c1 (centres unmarked) [Example 39, 2-(1-methylpyrrolidin-2-yl)ethyl(4′-amino-3′-chloro-[1,1′-biphenyl]-2-yl)carbamate]"
14,95.5 nM,"CCc1cccc(-c2cc(F)ccc2NC(=O)OCCC2CCCN2C)c1 (centres unmarked) [Example 44, 2-(1-methylpyrrolidin-2-yl)ethyl(3′-ethyl-5-fluoro-[1,1′-biphenyl]-2-yl)carbamate]"
15,69.6 nM,"Cc1cc(C)cc(-c2cc(F)ccc2NC(=O)OCCC2CCCN2C)c1 (centres unmarked) [Example 45, 2-(1-methylpyrrolidin-2-yl)ethyl(5-fluoro-3′,5′-dimethyl-[1,1′-biphenyl]-2-yl)carbamate]"
16,37.5 nM,"CN1CCCC1CCOC(=O)Nc1ccc(F)cc1-c1cccc(N)c1 (centres unmarked) [Example 46, 2-(1-methylpyrrolidin-2-yl)ethyl(3′-amino-5-fluoro-[1,1′-biphenyl]-2-yl)carbamate]"
